# Data: patent US20060263781A1, “Regulation of cell surface proteins” (priority 2003, published 2006)
# Legend:
# CFTR [1] = assay: Enzyme linked surface CFTR assay in T84 cell monolayers; assay type: cell-based, human; conditions: for CFTR surface expression, absorbance at 655 nm normalised to the nonsense treated group: 2 μM oligonucleotide for 24 hours, mean±1 SD; for CFTR surface expression, absorbance at 655 nm normalised to the control group: forskolin stimulated T84 cell monolayers, 33 μM nocodazole for 3 hours, mean±SD
# Description: T84 cell monolayers cultured on collagen coated glass coverslips were incubated in either chloride buffer with 10 μM forskolin or chloride buffer only for 30 minutes at 37° C. in 5% CO2 then fixed with 4% paraformaldehyde for 20 minutes at 4° C. The T84 cell monolayers were incubated for 1 hour firstly with CFTR (MA1-935) antibody (Walker et al., 1995) diluted 1:500 followed by HRP anti-mouse IgG diluted 1:1000. T84 cell monolayers were blocked prior to each incubation for 10 minutes in PBS containing 10% FBS and washed following each incubation 4 times in PBS. The coverslips were then placed into a clean 24 well plate and incubated for 30 minutes with 500 μl of 3′3′5′5′ Tetra methyl benzidine. The supernatant from each well was transferred to a cuvette and absorbance determined at 655 nm in a Beckman DU650 spectrophotometer. Absorbance was also determined at 655 nm for primary antibody negative controls and that amount was subtracted from the absorbance in primary antibody positive monolayers to determine their assay result.
# The CFTR surface expression is reported as the absorbance measured at 655 nm, normalised to the mean absorbance for the control group within individual experiments. To determine the effects of treatment, normalised absorbance at 655 nm was compared between groups. Two group comparisons were made using the Student t test.
# (§1) Cultured T84 colon cancer cell monolayers grown in collagen coated 24 well plates or on plastic coverslips were used as a model of the gastrointestinal epithelium. Incubation of monolayers inoculated with EPEC ([…]) for 6-9 hours was used to model EPEC infection and was compared with HB101, a non-pathogenic control. Antisense oligonucleotides were used to reduce tropomyosin 5a and 5b expression. An immuno-colourimetric assay was used to assess CFTR surface expression and intra-cellular MQAE fluorescence was used to assess chloride efflux.
# Tm5a and Tm5b [2] = assay: Western blot (immunoblot) of tropomyosin isoforms in T84 cells; assay type: cell-based, human; conditions: 24 hours exposure, 2 μM, Western blot band density
# Description: (§2) The sequence of the antisense and nonsense phosphorothioated oligonucleotides to Tm5a and Tm5b were 5′-CAC CGC CUC CAG CGA GCT (SEQ ID NO:14) and 5′-GCT CCA GCC ACG CCG ACT (SEQ ID NO:15) respectively. These were designed from the exon 1b sequence of the human αTMfast gene (Novy et al., 1993, Cell Motility & the Cytoskeleton 25, 267-281). T84 cell monolayers were grown to confluence on coverslips, in glass chamber slides or 24 well plates. The oligonucleotides were applied at a concentration of 2 μM with Lipofectin Reagent at 10 μg/ml according to the manufacturers instructions. The T84 cell monolayers were then incubated with the oligonucleotide for 24 hours at 37° C. in 5% CO2 after which time they were used for experiments that required oligonucleotide pretreatment.
# Proteins were extracted from T84 cells using the method of Wessel and Flugge (Wessel and Flugge, 1984). Western blot was performed as described (Percival et al., 2000, Cell Motility & the Cytoskeleton 47, 189-208). […] Bound antibody was detected using HRP-conjugated goat anti-rabbit or goat anti-mouse IgG. The bands were detected using Western Lightening™ chemiluminescence reagent and exposure to x-ray film.
# Protein expression was measured as the density of protein bands on Western blot autoradiographs using the computer program Molecular Analyst (Version 1.5, Bio Rad Laboratories, Calif., U.S.A.). […]
# Tm5a and Tm5b [3] = assay: Apical αf9d antibody staining pixel intensity by confocal microscopy in T84 cell monolayers; assay type: cell-based, human; conditions: 2 μM oligonucleotide for 24 hours, mean±1 SD
# Description: (§3) Cells were washed in 2% foetal bovine serum (FBS) in phosphate buffered saline (PBS) then fixed with 4% paraformaldehyde. They were permeabilised with 100% methanol, chilled to −80° C., for 20 minutes. Cells were incubated at room temperature with primary and secondary antibodies for 1 hour with washes performed with 2% FBS in PBS 3 times for 10 minutes after each incubation. Coverslips were mounted onto the slides with the anti-fade reagent DABCO.
# (§4) Fluorescence was examined with a confocal laser scanning microscope (Leica Microsystems, Wetzler, Germany) using a 63× oil emersion objective. The distribution of fluorophores was measured by scanning at 488 nm for FITC and 568 nm for rhodamine using 8 line averages to eliminate noise. Images were taken in the vertical (xz) and horizontal (xy) plane. Images in the horizontal plane were constructed by overlaying sections taken at 1 μm steps from the apical to the basal region of the cells.
# The pixel intensity of Tm antibody staining was measured on images obtained by confocal microscopy. Measurements were made across the apical region and across the central region of monolayers and averaged to obtain the mean pixel intensity for individual monolayers. […]
# tropomyosin isoforms = assay: Immunofluorescence localisation of tropomyosin isoforms in T84 cells after treatment; assay type: cell-based, human; conditions: for effect on polarised distribution of αf9d staining: T84 cell monolayers, 2 μM oligonucleotide for 24 hours
# Description: as §3, §4
# (§5) Epithelial cell monolayers were trypsinalised using trypsin/EDTA and centrifuged to form a cell pellet. The cells were then resuspended in medium containing either 1 μM jasplakinolide, 20 μM cytochalasin D or 33 μM nocodazole and seeded into poly-d-lysine and collagen coated glass chamber slides. The developing monolayers were then fixed and stained at 10 minutes after seeding. The effect of nocodazole on microtubules was confirmed by staining with antibodies to β tubulin and comparing with untreated cells. Mature T84 cell monolayers were treated with medium containing 20μM cytochalasin D for 3 hours then fixed and stained. Immunofluorescence analysis was then performed as described above.
# as §2, with “5′-[…]” for “5′-CAC CGC CUC CAG CGA GCT”, “5′-[…]” for “5′-GCT CCA GCC ACG CCG ACT”
# T84 cell monolayers = assay: MQAE chloride efflux assay; assay type: cell-based, human; conditions: for cumulative chloride efflux at 15 minutes, percentage increase in fluorescence normalised to the nonsense group: 2 μM oligonucleotide 24 hours, 10 μM forskolin, mean±1 SD; for cumulative chloride efflux at 15 minutes, percentage increase in fluorescence normalised to the control group: nocodazole 33 μM for 3 hours, mean±SD
# Description: T84 cell monolayers, cultured on 24 or 96 well plates were incubated in medium containing 10 mM MQAE for 16 hours. The monolayers were then washed 3 times in chloride buffer (2.4 mM Na2HPO4, 0.6 mM NaH2PO4, 1 mM K2SO4, 1 mM MgSO4, 3.4 mM KCl, 124.6 mM NaCl, 1 mM CaCl2, 10 mM glucose and 10 mM HEPES ). T84 cell monolayers were stimulated with forskolin by incubating with chloride buffer containing 10 μM forskolin for 10 minutes, after which the chloride buffer was removed and replaced with chloride free buffer (2.4 mM Na2HPO4, 0.6 mM NaH2PO4, 1 mM K2SO4, 1 mM MgSO4, 3.4 mM KNO3, 1 mM Ca(NO3)2, 124.6 mM NaNO3, 10 mM glucose and 10 mM HEPES) containing 10 μM forskolin. Repetitive fluorescence measurements were initiated immediately using a fluorescence plate reader (excitation, λ-360 nm; emission, λ-460 nm). Measurements were performed every 30 to 60 seconds for 15 minutes.
# Chloride efflux was measured as the percentage increase in fluorescence between baseline and the specified time point. The percentage increase in fluorescence was normalised within experiments to the mean percentage increase in fluorescence in the control group in that experiment. To determine the effects of treatments, the normalised percentage increase in fluorescence was compared between groups. Two group comparisons were made using the Student t test.
# as §1
# CFTR [4] = conditions: cytochalasin D induced disruption of actin filaments; Prat et al., 1995; cited from earlier work
# microtubules = assay: β tubulin staining to confirm effect on microtubules; assay type: cell-based, human; conditions: T84 cells, 33 μM nocodazole
# Description: as §5, with “The effect of nocodazole on microtubules was confirmed by staining with antibodies to β tubulin and comparing with untreated cells.” left out
compound,measurement,setting,value
"5′-CAC CGC CUC CAG CGA GCT (antisense CACCGCCUCCAGCGAGCT; all phosphorothioate, sugars by position and methylation of C not given here) [Antisense phosphorothioated oligonucleotide to Tm5a and Tm5b, targeted to exon 1b of the TPM1 gene]","increase in CFTR surface expression, antisense compared with nonsense controls","CFTR [1]; T84 cell monolayers, 2 μM for 24 hours",50%
same,"CFTR surface expression, absorbance at 655 nm normalised to the nonsense treated group",CFTR [1]; T84 cell monolayers,1.49±0.78
same,mean reduction in Tm5a and Tm5b levels relative to nonsense treatment,Tm5a and Tm5b [2],54±13%
same,apical αf9d antibody staining pixel intensity,Tm5a and Tm5b [3],53.62±31.62
same,effect on polarised distribution of αf9d staining,tropomyosin isoforms,eliminated the polarised distribution of αf9d staining
same,"cumulative chloride efflux at 15 minutes, percentage increase in fluorescence normalised to the nonsense group",T84 cell monolayers,1.47±0.41
"5′-GCT CCA GCC ACG CCG ACT (GCTCCAGCCACGCCGACT; all phosphorothioate, sugars by position and methylation of C not given here) [Nonsense, Scrambled nonsense control oligonucleotide]","CFTR surface expression, absorbance at 655 nm normalised to the nonsense treated group",CFTR [1]; T84 cell monolayers,1±0.42
same,apical αf9d antibody staining pixel intensity,Tm5a and Tm5b [3],150.86±48.28
same,effect on polarised distribution of αf9d staining,tropomyosin isoforms,essentially no effect on the distribution of staining
same,"cumulative chloride efflux at 15 minutes, percentage increase in fluorescence normalised to the nonsense group",T84 cell monolayers,1±0.36
C=C1[C@@H](C)[C@H]2[C@H](Cc3ccccc3)NC(=O)[C@]23[C@H](OC(C)=O)/C=C/[C@@](C)(O)C(=O)[C@@H](C)C/C=C/[C@H]3[C@@H]1O [cytochalasin D],effect on chloride currents through CFTR,CFTR [4],increase chloride currents through CFTR
same,effect on polarised distribution of αf9d staining in established monolayers,"tropomyosin isoforms; mature T84 cell monolayers, 20 μM cytochalasin D for 3 hours",eliminated the polarised distribution of αf9d staining
"COC(=O)Nc1nc2ccc(C(=O)c3cccs3)cc2[nH]1 [Nocodazole, nocodazole]","CFTR surface expression, absorbance at 655 nm normalised to the control group",CFTR [1],0.92±0.25
same,"CFTR surface expression, absorbance at 655 nm normalised to the control group",CFTR [1]; listed as nocodazole,failed to elicit any significant change
same,microtubular structure by β tubulin staining,microtubules,disrupted normal microtubular structure
same,distribution of 311 antibody staining 10 minutes post-seeding,"tropomyosin isoforms; T84 cells pretreated in suspension before seeding (jasplakinolide 1 μM, nocodazole 33 μM)",enrichment at the apical surface
same,"cumulative chloride efflux at 15 minutes, percentage increase in fluorescence normalised to the control group",T84 cell monolayers,1.01±0.43
same,"cumulative chloride efflux at 15 minutes, percentage increase in fluorescence normalised to the control group",T84 cell monolayers; listed as nocodazole,failed to elicit any significant change
